ChEMBL document CHEMBL3507680, “University of Dundee, Gates Library screen for HepG2 cell viability”

Assay: Human HepG2 cell viability assay in 384 well format
Assay type: toxicity, cell-based
Set-up: dose 125 nL, time 70.5 hour; concentration not given beside the values
Settings: HepG2 cells, read-out: Inhibition

Row | SMILES | cytotoxicity at 70.5 h
1 | N#CC1(NC(=O)COc2cc(Cl)cc(Cl)c2)CCOCC1 | -5.72%
2 | CCn1cc(C(=O)N2CCCC3(CCC(=O)N(CCC(C)C)C3)C2)cn1 (stereo unspecified) | -5.07%
3 | CSCCN1C(=O)CC(C)(c2ccc(Br)cc2)C1=O (stereo unspecified) | -5.43%
4 | CC(C)c1cc(NC(=O)CN2CCc3nn(C)c(=O)cc3C2)on1 | -4.73%
5 | CC(=O)Nc1ccc(Oc2cc(C)nc(C3CCNCC3)c2)cc1 | -15.5%
6 | CN1CCCN(c2cnn(Cc3ccncc3)c(=O)c2)CC1 | -9.95%
7 | CCc1nc(C2CCCN(C(=O)c3cccc(C(N)=O)c3)C2)no1 (stereo unspecified) | 1.02%
8 | Cc1ccc(F)cc1NC(=O)NCC(C)N1CCOCC1 (stereo unspecified) | 9.4%
9 | CCc1nc(C2CCCN(C(=O)c3ccc(Cl)cc3)C2)no1 (stereo unspecified) | 5.79%
10 | CN(CC(=O)NC(C)(C#N)C1CC1)Cc1nc2ccccc2n1C (stereo unspecified) | 4.49%
11 | COC(=O)CC1CCCCN1CC(=O)NCCc1ccc(F)cc1 (stereo unspecified) | 1.06%
12 | COCC(=O)N1CCC(C(=O)c2cc(C)cnc2N)CC1 | -1.24%
13 | NC(=O)C1CCCN1Cc1cccc(NC(=O)c2cccs2)c1 (stereo unspecified) | 2.36%
14 | CCC(CC)C(=O)NCc1cn2cc(Br)ccc2n1 | -8.77%
15 | O=C1Nc2ccccc2C12CCN(c1nccs1)CC2 | -3.17%
16 | COc1ccc(C)cc1NC(=O)Nc1cnc(N2CCN(C)CC2)nc1 | 16.2%
17 | COC(=O)c1cnc(/C=C/c2ccc(C(=O)O)cc2)s1 | 0.0314%
18 | CCNC(c1ccc(C(C)C)cc1)c1cccnc1 (stereo unspecified) | 2.26%
19 | Cc1cc(C)n(CC2CN(CC(=O)NCc3cccs3)CCO2)n1 (stereo unspecified) | 13.4%
20 | O=C(O)c1cccc(C2CCCN(S(=O)(=O)N3CCOCC3)C2)c1 (stereo unspecified) | -7.39%
21 | CCN(Cc1ccncc1)C(=O)c1cn(CCCc2ccccc2)nn1 | -12.5%
22 | CCC1CCC(N(Cc2cc(=O)n(C)c(=O)n2C)C2CC2)CC1 (stereo unspecified) | -5.27%
23 | CCN(Cc1ccncc1)c1cc(C2CCN2C(C)=O)nc(C)n1 (stereo unspecified) | -1.55%
24 | CC(C)c1noc(OCc2cccc(S(=O)(=O)N(C)C)c2)n1 | -17.9%

Row | SMILES | cytotoxicity at 70.5 h
25 | Cc1n[nH]c(C)c1-c1nccnc1CC1CCNC1 (stereo unspecified) | -2.8%
26 | CC(c1nc(C2CC2)no1)N(C)Cc1ccc(C#N)cc1 (stereo unspecified) | -1.86%
27 | Cc1nnc(C2Cc3ccccc3CN2Cc2ncc(Cl)n2C)o1 (stereo unspecified) | -13.3%
28 | c1cncc(OCc2noc3c2CN(Cc2cccs2)CC3)c1 | -24.1%
29 | c1nc(N2CCCC2)cnc1C1CCNCC1 | -6.46%
30 | Cc1ccc(C(=O)NC2CCN(C(=O)Nc3ccccn3)CC2)s1 | 11.7%
31 | CC(C)c1nc(CN(C)S(=O)(=O)c2cccs2)cs1 | 1.87%
32 | Cc1ccc(N2CCCC(NCc3ccc(-n4ccnc4)cc3)C2)nn1 (stereo unspecified) | 17.4%
33 | O=C1C(NS(=O)(=O)c2ccc(F)c(F)c2)CCN1Cc1ccccc1 (stereo unspecified) | -7.62%
34 | O=C(c1ccccn1)N1CCc2nc(-c3cnccn3)nc(O)c2C1 | -3.62%
35 | CC(NC(=O)COc1ccc(F)cc1)c1nnc2n1CCCCC2 (stereo unspecified) | -4%
36 | O=C(c1cn(CCN2CCCCC2)nn1)N1CCCO1 | -6.13%
37 | CCc1cnc(C)nc1NCCC(=O)N1CCC(C)CC1 | -0.743%
38 | COCCN(Cc1c(C)nn(C)c1C)C(=O)C1COc2ccccc2C1 (stereo unspecified) | -1.84%
39 | C[C@@H]1CN(CCC(=O)N(C)Cc2ccccc2)C[C@@]1(O)C1CCC1 | -7.64%
40 | CC(=O)N[C@@H]1CN(C(=O)c2ccoc2)C[C@H]1c1ccc(C)cc1 | -13.3%
41 | Cc1nc(N2CCN(C(=O)c3ccccc3)CC2)cc(-n2ccnc2)n1 | 10.7%
42 | C1CC(c2noc(C3CC3)n2)CN(CCOCC2CC2)C1 (stereo unspecified) | 7.19%
43 | CCc1c(NCc2cccnc2)cnn1CC(C)C | -5.5%
44 | CN(Cc1ccc(Cl)s1)C(=O)c1ccccc1OCC(N)=O | -14.1%
45 | Cc1cc(-c2cnn(CCNC(=O)c3cccnc3)c2C2CC2)on1 | -16.3%
46 | COc1cccc(C2CCCN2C(=O)NCCCn2cccn2)c1 (stereo unspecified) | -6.25%
47 | CS(=O)(=O)N1CCC2(CC1)CC(NCc1ccco1)c1ccccc12 (stereo unspecified) | -1.03%
48 | COCC(=O)N1CCC(c2cc(N(C)C)cc(C)n2)CC1 | 25.5%

Row | SMILES | cytotoxicity at 70.5 h
49 | Cc1nc(CNC2CCN(Cc3ccccc3)C2)sc1C (stereo unspecified) | -4.16%
50 | Cn1cnc2c1C(C(=O)N1CCOCC1)N(C(=O)c1ccccc1)CC2 (stereo unspecified) | -4.08%
51 | CCc1nsc(N2CCCN(C(=O)COc3ccccc3)CC2)n1 | -3.48%
52 | CCCn1cnnc1CNC1CCSC1 (stereo unspecified) | -7.63%
53 | CCN(CC)C1CCN(C(=O)Nc2cc(F)c(OC)c(F)c2)C1 (stereo unspecified) | 1.91%
54 | Cc1occc1C(=O)NCC(=O)N(C)CCCOc1ccc(F)cc1 | -6.91%
55 | CSCC[C@@H](CO)Nc1ccc(-c2nc(C3CC3)no2)cn1 | -3.18%
56 | CN(Cc1cnn(C)c1)C(=O)Cn1c(CS(C)(=O)=O)nc2ccccc21 | -12.9%
57 | CS(=O)(=O)N1CCOC2(CCCC2)C1 | -5.25%
58 | CC(C)n1cc(CN2CCCN(C(=O)C3CCCN3C)CC2)cn1 (stereo unspecified) | -3.1%
59 | CCC1CCCCN1Cc1ncc(C(C)(C)C)o1 (stereo unspecified) | -7.2%
60 | OCC1(O)CCCN(Cc2noc(-c3ccccc3)n2)CC1 (stereo unspecified) | 26.3%
61 | COc1ccc(NC(=O)N2CCC3(CC2)NC(=O)CC3C(=O)O)cc1Cl (stereo unspecified) | 13.1%
62 | O=C(NCCc1ccccc1Cl)NCC1(O)CCSC1 (stereo unspecified) | 3.74%
63 | COc1ncccc1CNCc1cnc(N2CCOCC2)nc1 | -9.23%
64 | Cc1cc(NCCSc2nccn2C)n2nc(C)c(C)c2n1 | -4.55%
65 | NC(=O)c1ccc(-c2nc3c(c(=O)[nH]2)CCNC3)cc1 | -2.1%
66 | CC(C)CN1CCC2(CC1)C(=O)Nc1ccc(C(=O)N(C)C)cc12 | -10.1%
67 | FC(F)(F)c1cc(-c2cccs2)nc(N2CCN3CCCC3C2)n1 (stereo unspecified) | -13.6%
68 | CCn1ccnc1CN(C)C1CCCN(CCc2ccccc2)C1 (stereo unspecified) | 1.27%
69 | CCn1cc(NC(=O)C2CCN(Cc3nc(C(C)C)no3)CC2)cn1 | -6.8%
70 | CC(=O)N[C@H]1CCN(C(=O)c2cc(Cn3cnc4ccccc43)[nH]n2)C1 | -3.6%
71 | Cc1nc(CCCNC(=O)c2c(F)cccc2Br)n[nH]1 | 3.62%
72 | O=C(Nc1ccccc1OCC1CCCCO1)c1ccc(O)nc1 (stereo unspecified) | -13%

Row | SMILES | cytotoxicity at 70.5 h
73 | Cc1cccc(C)c1NC(=O)c1cccc(CN2CCCC2C)c1 (stereo unspecified) | 3.17%
74 | CCS(=O)(=O)N(C)C1CCN(C(=O)c2cccc(Cl)c2)CC1 | -4.92%
75 | CCc1ncncc1C(=O)N1CCCN(Cc2ccc(C)cc2)CC1 | 20.1%
76 | CC(C)c1nn(C)c(N(C)C)c1CNCC(O)COc1ccccc1 (stereo unspecified) | -3.95%
77 | CC1CCCN(Cc2ccc(CNC(=O)NCc3ccon3)cc2)C1 (stereo unspecified) | 2.37%
78 | CN(C)c1ncccc1N(C)C(=O)Cn1cc(-c2ccccc2)nn1 | -3.41%
79 | O=C1NCCN1C1CCCN(Cc2coc(-c3cccs3)n2)C1 (stereo unspecified) | -6.11%
80 | COc1ncccc1C(=O)N1CC[C@H]2C[C@@H](c3ccncn3)O[C@@H]2C1 | -18%
81 | Cc1ncccc1CNCC1COC2(CCCCC2)O1 (stereo unspecified) | 27.5%
82 | N#Cc1c(F)cccc1N1CCC(C(=O)Nc2nccs2)CC1 | -17.6%
83 | CC(C)c1ncc2c(n1)CN(CCCc1nc3ccccc3o1)CC2 | -3.98%
84 | COc1ncc(NS(=O)(=O)c2ccc(F)c(F)c2)c(OC)n1 | -1.82%
85 | CCCc1noc(CCC(=O)N2CCCC2c2ccsc2)n1 (stereo unspecified) | -16.1%
86 | CS(=O)(=O)N1CCOCC2(CCN(C(=O)c3cnccn3)CC2)C1 | 17.6%
87 | CS(=O)(=O)N1CCC(CNC(=O)C2CCCC2)CC1 | -16%
88 | CNC(=O)c1noc(Cn2ncc3ccccc3c2=O)n1 | 0.589%
89 | Cc1cc(C)n(CCCNC(=O)[C@@H](C)NC(=O)OC(C)(C)C)n1 | -14.4%
90 | COc1ccccc1C(O)Cn1cc(C(=O)NCC2CC2)nn1 (stereo unspecified) | -2.27%
91 | Cc1ccc(C(=O)N2CCCN(Cc3cscn3)CC2)o1 | -6.95%
92 | CCc1ccc(O)c(C(=O)NC2CCN(Cc3ccncc3)CC2)c1 | 17.7%
93 | CNC(=O)C(C)NC(=O)c1ccc(Oc2cccnc2)cc1 (stereo unspecified) | -10.1%
94 | c1ccc(C(CNc2ncccn2)N2CCOCC2)nc1 (stereo unspecified) | -1.54%
95 | CCc1nnc2n1CCN(C(=O)c1nc(-c3ccco3)sc1C)C2 | -6%
96 | CCN(CC(=O)NC)C(=O)c1csc(Cc2ccccc2)n1 | -2.3%

Row | SMILES | cytotoxicity at 70.5 h
97 | CCC(C)Oc1cc(C(=O)Nc2nnc(C(C)C)[nH]2)ccn1 (stereo unspecified) | 3.52%
98 | O=C(Cn1cc(-c2ccccc2)ncc1=O)Nc1nnc[nH]1 | -13.5%
99 | CC(=O)N1CCN(CC(N)=O)CC(COc2ccccc2)C1 (stereo unspecified) | 6.55%
100 | O=C(C1CC1)N1CC[C@H](c2nc3ccccc3o2)C1 | 5.84%
101 | Cc1ccc(C(=O)NCC2CCCCO2)c(=O)[nH]1 (stereo unspecified) | -3.97%
102 | CN(Cc1cccs1)C1CCC[C@@H]2CN(C(N)=O)C[C@H]12 (stereo partly specified) | -10.5%
103 | CCCOc1ccccc1C(N)CC(C)C (stereo unspecified) | -9.52%
104 | Cc1noc(CN(Cc2ccc3c(c2)OCO3)C2CCCC2)n1 | -13%
105 | Cc1cc(NC(=O)C(C)Oc2ccc3c(c2)OCO3)no1 (stereo unspecified) | -6.37%
106 | Cc1ccc(C(CC(=O)O)NC(=O)CCc2cccs2)cc1 (stereo unspecified) | -1.09%
107 | OCC(CO)Nc1ccc2c(Cl)ccc(Cl)c2n1 | -1%
108 | CC(=O)c1nn(-c2ccccc2Cl)c(C)c1C(C)=O | -10.3%
109 | CN(C)C1COC2(CCN(C(=O)c3cccnc3)CC2)C1 (stereo unspecified) | -6.03%
110 | CCOCCC(=O)N(Cc1ccncc1)C(C)CC (stereo unspecified) | 20.8%
111 | COCc1nc(CNC2CCCc3c2cnn3C(C)(C)C)cs1 (stereo unspecified) | -6.43%
112 | CCN(CC)C(=O)[C@@H]1C[C@H](NC(=O)c2ccn(C(C)(C)C)c2)CN1C | -1.68%
113 | Cc1cnn(CC2CCCCN2C(=O)c2ccc3c(c2)COC3)c1 (stereo unspecified) | 4.39%
114 | Cc1ccc(C)c(OC(C)C(=O)NCc2cccnc2)c1 (stereo unspecified) | -5.32%
115 | Cn1cc(CN2C[C@@H]3COC[C@]3(C(=O)NCc3ccccn3)C2)cn1 | -17.5%
116 | CN1CCOC(CNCc2ccccc2OCc2ccccn2)C1 (stereo unspecified) | -9.16%
